Laboratory results published in patent US20050165104A1, “Biocidal agents and veterinary methods” (priority 2002, published 2005).
Like-named read-outs stand apart in the source and are kept apart here. Marks after values point to notes of the source that are not given here.

How the values were obtained:
[1] = pH of the tested solution; type: physicochemical
[2] = system: Candida albicans; experiment: Antimicrobial Diffusion Test (blood agar plate, zone of inhibition); type: cell-based
Protocol: (§1) The Antimicrobial Diffusion Test is used to determine the ability of a compound to inhibit growth of an organism. During the course of the test, each compound is treated as an unknown solution with an assigned number. After the data have been collected, the identity of the compound is assigned. In the test, a blood agar plate is inoculated with a known stock organism (fungus or bacteria). One drop of a numbered solution is applied to a freshly inoculated agar plate. A single numbered solution is applied per organism on a plate. The inoculated plate is examined on a daily basis for growth of the organism.
(§2) Areas of no microbial growth, or zones of inhibition are measured in millimeters and documented. If the plate is entirely covered with organism growth, there is no measurable zone of inhibition. After all zones of inhibition with the corresponding organisms and the solution number tested for sensitivity have been documented, each solution number is replaced by the correct solution name. The zones of inhibition are then used to establish relative in vitro resistance and sensitivity of the organism to the solution.

[3] = system: Beta Streptococcus; experiment: as above; type: cell-based; conditions: for zone of inhibition at 10000 µM / zone of inhibition at 100000 µM: Streptococcus, read-out: Inhibition, Beta Strep (zone of inhibition / relative potency); for zone of inhibition at 10000 µM: 0.01M (extracts: 0.01M total components)
Protocol: as §1, §2

[4] = system: Escherichia coli; experiment: as above; type: cell-based
Protocol: as §1, §2

[5] = system: Trichophyton rubrum; experiment: as above; type: cell-based
Protocol: as §1, §2

[6] = system: Staphylococcus aureus; experiment: as above; type: cell-based
Protocol: as §1, §2

[7] = system: Aspergillus fumigatus; experiment: as above; type: cell-based
Protocol: as §1, §2

[8] = system: Candida albicans, Staphylococcus aureus, Beta Streptococcus, Escherichia coli, Aspergillus fumigatus, and Trichophyton rubrum; experiment: Antimicrobial Diffusion Test, all organisms tested; type: cell-based; conditions: for specificity of inhibitory activities over the organisms tested (in words): summary of Table 1
Protocol: as §1, §2
Table 1 provides data comparing the efficacy of a number of different antimicrobial compounds of the present invention. Compounds were assayed at varying concentrations using the Antimicrobial Diffusion Test described above. Summary for data on the following compounds is listed: 3-n-propylphenol, 3-pentylphenol, 5-propylresorcinol, 3-isobutylphenol, 4-hexylresorcinol, phenol, phenylacetic acid, 3-hydroxoctanoic acid, a reconstituted metapleural gland secretion from Atta sexdens worker ant, a reconstituted metapleural gland secretion from Atta sexdens soldier ant, a reconstituted metapleural gland secretion from Atta cephalotes worker ant, a reconstituted metapleural gland secretion from Atta cephalotes soldier ant, metapleural gland secretion from C. deformis, Mycocide, Tineacide, and Penlac. […]

[9] = test solution 0.1M (extracts: 0.1M total components)
[10] = 0.1M (extracts: 0.1M total components), higher number = greater inhibition
[11] = 0.1M (extracts: 0.1M total components)
[12] = test solution 0.01M (extracts: 0.01M total components)
[13] = 0.1M (extracts: 0.1M total components), value unmarked
[14] = 0.01M (extracts: 0.01M total components)
[15] = 0.01M, value marked * (footnote not given)
[16] = 0.1M (extracts: 0.1M total components), value marked ** (footnote not given)
[17] = 0.1M, value marked * (footnote not given)

Structure (SMILES) | pH [1, 9] | Inhibition, Candida Albicans (zone of inhibition / relative potency) [2, 10] [mm] | Inhibition, E. coli (zone of inhibition / relative potency) [4, 11] [mm] | pH [1, 12] | zone of inhibition at 10000 µM [3] [mm] | zone of inhibition at 100000 µM [3, 11] [mm] | Inhibition, Staph aureus (zone of inhibition / relative potency) [6, 11] [mm] | Inhibition, Asp fumigatus (zone of inhibition / relative potency) [7, 11] [mm] | Inhibition, Candida Albicans (zone of inhibition / relative potency) [2, 14] [mm] | Inhibition, T. rubrum (zone of inhibition / relative potency) [5, 15] | Inhibition, T. rubrum (zone of inhibition / relative potency) [5, 17] | further results
CCCCCC(O)CC(=O)O (centres unmarked) [3-hydroxoctanoic acid] | 6 | 12 | 13 |  |  |  |  |  |  |  |  | Inhibition, Beta Strep (zone of inhibition / relative potency) [3, 11]: 12 mm
CCCCCCCC(O)CC(=O)O (centres unmarked) [3-hydroxydecanoic acid] | 6 | 15 | 13 | 6.5 | 12 | 11 | 12 | 13 |  |  |  | Inhibition, T. rubrum (zone of inhibition / relative potency) [5, 13]: 12 mm
CCCCCCCCCC(O)CC(=O)O (centres unmarked) [3-hydroxydodecanoic acid] | 6 | 8 | 10 | 6.5 |  | 10 | 9 | 7 |  |  |  | Inhibition, T. rubrum (zone of inhibition / relative potency) ([5]; 0.01M, value unmarked): 10 mm; Inhibition, T. rubrum (zone of inhibition / relative potency) [5, 13]: 14 mm
CCCc1cccc(O)c1 [3-n-propylphenol] | 6.5 | 13 | 17 | 6.5 |  | 15 | 14 | 10 | 13 | 12* mm | 21 mm | specificity of inhibitory activities over the organisms tested (in words) [8]: ability to inhibit growth of all organisms tested; Inhibition, T. rubrum (zone of inhibition / relative potency) [5, 16]: 14 mm
CCCCCc1cccc(O)c1 [3-pentylphenol] | 6.5 | 21 | 15 | 6.5 | 15 | 18 | 18 | 25 | 15 | 16* mm | 65 mm | spectrum of effectiveness on the microorganisms tested (in words) ([8]; 0.1M, Table 1 row 3): exceptional broad spectrum effectiveness; specificity of inhibitory activities over the organisms tested (in words) [8]: ability to inhibit growth of all organisms tested; Inhibition, E. coli (zone of inhibition / relative potency) ([4]; 0.01M): 16 mm; Inhibition, T. rubrum (zone of inhibition / relative potency) [5, 16]: 45 mm; side-by-side comparison against Penlac 0.1M on Trichophyton rubrum (in words) ([5]; 0.1M each): unexpectedly superior; Inhibition, Staph aureus (zone of inhibition / relative potency) ([6]; 0.01M): 14 mm; Inhibition, Asp fumigatus (zone of inhibition / relative potency) ([7]; 0.01M): 9 mm; inhibition of Aspergillus fumigatus growth (in words) ([7]; 0.1 M, FIG. 5): effective at inhibiting Aspergillus fumigatus growth
CCCCCCc1ccc(O)cc1O [4-hexylresorcinol] | 6.5 | 20 | 15 | 6.5 | 16 | 17 | 15 | 20 | 19 | 29* mm | 38* mm | Inhibition, E. coli (zone of inhibition / relative potency) ([4]; 0.01M): 17 mm; Inhibition, Staph aureus (zone of inhibition / relative potency) ([6]; 0.01M): 16 mm; Inhibition, Asp fumigatus (zone of inhibition / relative potency) ([7]; 0.01M): 16 mm
CCCCCc1cc(O)cc(O)c1 [5-pentylresorcinol] | 6.5 | 19 | 17 |  |  | 20 | 16 | 20 |  |  | 47* mm | 
CCCc1cc(O)cc(O)c1 [5-propylresorcinol] | 6.5 | 14 | 15 |  |  |  |  |  |  |  | 14* mm | zone of inhibition at 100000 µM [3]: 14 mm
O=C(O)Cc1c[nH]c2ccccc12 [indoleacetic acid] |  |  |  |  |  | 6 |  |  |  |  |  | 
